Source: patent publication US20070155023A1, “Identification of proteins and other species with emissive chelating label” (Massachusetts Institute of Technology, priority 2005, published 2007)

Assays:
[1] = Photophysical properties (absorbance, emission, quantum yield) in pH 7 buffer; assay type: physicochemical; conditions: for Quantum yield Φ: no metal ion, pH 7, 22° C., relative to fluorescein
Excerpt: General Procedure. Acetonitrile (MeCN) was dried over 3 Å molecular sieves. Triethylamine (Et3N) and chloroform (CHCl3) were purchased from Aldrich and used as received. 6-Carboxy-2′,7′-dichlorofluorescein-3′,6′-diacetatesuccinimidyl ester was synthesized by a method previously developed in this laboratory. ^1N,N-Bis(carboxymethyl)-L-lysine hydrate was purchased from Fluka and used as received. ^1H and ^13C NMR spectra were acquired on either a Varian 300 Mhz or a Varian 500 MHz spectrometer and referenced to internal standards. IR spectra were collected on an Avatar 360 FT-IR instrument. Melting points were measured with a Mel-Temp apparatus. Fluorescence spectra were obtained on a Hitachi F-3020 spectrofluorimeter, and UV/vis spectra were acquired on a Cary 1E spectrophotometer. Low-resolution mass spectra were collected on an Agilent 1100 Series LC/MSD system. High-resolution mass spectra were provided by staff at the MIT Department of Chemistry Instrumentation Facility. Preliminary cell images were acquired with a Nikon Eclipse TS100 microscope equipped with an RT Diagnostics camera with illumination provided by a Chiu Mercury 100 W lamp. Magnification was 20×. The cell imaging system was operated with Spot Advanced software. Fluorescence images were obtained using a FITC-HYQ filter cube (excitation 460-500 nm, bandpass 510-560 nm). Select cell images were acquired with a LSM510 confocal microscope.
Aqueous solutions were prepared with Millipore water. A 2.25 mM stock solution of NTA-DCF in DMSO was prepared, separated into aliquots, stored at −25° C., and thawed in the dark immediately before use. All spectroscopic data were collected in a pH 7 buffer solution of 50 mM piperazine-N,N′-bis(2-ethanesulfonic acid) (PIPES) and 100 mM KCl unless noted otherwise. Solution magnetic susceptibilities were measured by the Evan's method. Spectroscopic data were taken at room temperature (22° C.). Quantum yields were measured relative to fluorescein in 0.1 M NaOH (Φ=0.95).
The photophysical properties of the signaling entity were measured to observe the effect that introduction of the NTA functionality may have on the absorbance and/or emission of the signaling entity.

[2] = test system: cell cultures (nuclei stained with Hoechst 33285); experiment: Nuclear morphology study of NTA-DCF toxicity; assay type: cell-based
Procedure: Cells were incubated with either NTA-DCF or PBS for five min, washed twice with PBS, and fixed for 5 min with 4% p-formaldehyde. After fixation, the cells were rinsed four times with PBS (5 min each wash). Hoechst 33285 dye (Molecular Probes) was added to the second rinse such that the final concentration reached 2 μg/ml.

[3] = test system: polyhistidine sequences on HEK 293-T cells transfected with pDisplay-6×His; experiment: Fluorescent labeling of extracellular His6 tags on transfected HEK 293-T cells (confocal microscopy); assay type: cell-based
Procedure: (§1) This example describes the incorporation of an affinity tag within a target analyte (e.g., a cell). A polyhistidine affinity tag was incorporated within a plasmid, which was then used for transfection with the target cell. pDisplay-6×His was constructed by introduction of an oligonucleotide encoding for a His6 tag (5′-CATCATCATCATCATCAT-3′) into a pDisplay plasmid (Invitrogen) digested with BglII and SalI.
(§2) Both HeLa and HEK 293-T cells were cultured in Dulbecco's Modified Eagle Medium (DMEM) supplemented with 10% fetal calf serum (FCS, Invitrogen), glutamine (2 mM), Penicillin (100 units/mL) and Streptomycin (100 μg/mL). The cells were passed and plated on 18 mm glass coverslips coated with 0.2% gelatin 36 hours before transfection. […]
(§3) The fluorescently-labeled cells may be monitored by confocal microscopy. Confocal images of cells (NTA-DCF staining and mRFP fluorescence) were obtained with a Zeiss LSM510 microscope equipped with a 100× objective. […] Images of cells stained with Hoechst 33285 were obtained with a Zeiss Axioscope fluorescence microscope equipped with a 40× objective and a Hamamatsu digital camera. […]
(§4) A metal chelator was added to observe the effect on binding of NTA-DCF probe to the target cell. […] In the absence of EDTA or a similar metal scavenging agent, the label-protein construct persisted for at least 20 min after washing, but its stability has not yet been fully assessed.

HeLa cells = experiment: Cell permeability of living HeLa cells; assay type: in vitro ADME; conditions: alone or as its Ni^2+ adduct, 5 μM, 5 min, 22° C., PBS
Procedure: (§5) The cells as described in Example 3 were used for labeling with NTA-DCF two days after transfection with plasmid. Immediately prior to labeling, the cells were washed once with PBS. A stock solution of complexed Ni^2+-NTA-DCF was prepared by mixing 2.5 mM NiCl2 and 2.5 mM NTA-DCF in a 1:1 ratio in PBS. HeLa and HEK 293-T cells were each washed once with PBS, then incubated with 5 μM Ni^2+-NTA-DCF for 5 min at 22° C. in PBS. The cells were subsequently rinsed twice with PBS, fixed with 4% paraformaldehyde for 5 min, washed with two portions of PBS, and mounted using Vectashield anti-fading reagent (Vector Labs). As a negative control, a cell sample was incubated with NTA-DCF without added Ni^2+. In order to gauge the reversibility of staining, 5 mM EDTA was added to a sample of cells stained with 5 μM NTA-DCF and 5 μM Ni^2+. […] This impermeability can be exploited to label and image selectively proteins on the extracellular side of the cell membrane. The NTA-DCF composition was premixed with an equimolar concentration of NiCl2, and the mixture was added to a sample containing either HeLa or HEK 293-T cells.

HEK 293-T cells = experiment: Cell permeability of living HEK 293-T cells; assay type: in vitro ADME; conditions: alone or as its Ni^2+ adduct, 5 μM, 5 min, 22° C., PBS
Procedure: as §5

[4] = test system: polyhistidine sequences on HeLa cells transfected with pDisplay-6×His; experiment: Fluorescent labeling of extracellular His6 tags on transfected HeLa cells (confocal microscopy); assay type: cell-based
Procedure: as §1, §2, §3, §4

[5] = pDisplay-6×His, premixed with equimolar NiCl2

| Quantum yield Φ ([1]; 50 mM PIPES, 100 mM KCl) | Emission λmax ([1]; pH 7 buffer) | Decrease in fluorescence emission upon addition of NiCl2 ([1]; 50 mM PIPES, 100 mM KCl, pH 7.0, FIG. 2) | Quantum yield Φ after chelation of a paramagnetic metal ion ([1]; after chelation of Ni^2+, relative to fluorescein in 0.1 M NaOH) | Extinction coefficient ε ([1]; at 504 nm) | Absorption band ([1]; pH 7 buffer) | melting point | Entry into cells (HeLa cells) | Entry into cells (HEK 293-T cells) | SMILES | Toxicity (nuclear morphology study) ([2]; 5-μM dose, five min incubation, FIG. 7) | Change of size and shape of nuclei ([2]; addition of NTA-DCF, five min, Hoechst staining) | Binding of the probe when the polyhistidine tag is not expressed ([3]; pDisplay without His6 tags, 5 μM NTA-DCF and 5 μM NiCl2, FIG. 5B) | Fluorescent labeling of polyhistidine sequences on extracellular plasma membrane surface [3, 5] | Binding of the probe when Ni^2+ is unavailable ([4]; 5 μM NTA-DCF without NiCl2, 5 min, FIG. 4B) | Fluorescent labeling of polyhistidine sequences on extracellular plasma membrane surface [4, 5] |
| --- | --- | --- | --- | --- | --- | --- | --- | --- | --- | --- | --- | --- | --- | --- | --- |
| 0.88 | 526 nm | – | – | – | – | – | – | – | O=C1OC2(c3cc(Cl)c(O)cc3Oc3cc(O)c(Cl)cc32)c2ccccc21 [2′,7′-dichlorofluorescein, reference compound] | – | – | – | – | – | – |
| 0.78 | 527 nm | 5% | 0.72 | 86000 M⁻¹ cm⁻¹ | 504 nm | 182 °C (dec.) | not enter | not enter | O=C(O)CN(CC(=O)O)C(CCCCNC(=O)c1ccc(C(=O)O)c(-c2c3cc(Cl)c(=O)cc-3oc3cc(O)c(Cl)cc23)c1)C(=O)O (centres unmarked) [NTA-DCF, N-[5-(Bis-carboxymethyl-amino)-5-carboxy-pentyl]-2-(2,7-dichloro-6-hydroxy-3-oxo-3H-xanthen-9-yl)-terephthalamic acid] | not toxic | Neither the size nor shapes of the nuclei change | blocked | fluorescently label | blocked | fluorescently label |
